Laboratory results taken from ChEMBL document CHEMBL5244224, “Antioxidant Activity of Natural Allylpolyalkoxybenzene Plant Essential Oil Constituents” (J Nat Prod, 2019).
Calls of active or inactive are those of the source. The calls are words filed in the database; no cut-off is given here.

Key:
[1] = Antioxidant activity assessed as DPPH radical scavenging capacity at 0.1 mM incubated for 30 mins under dark condition by absorbance based assay; format: functional
[2] = Antioxidant activity assessed as DPPH radical scavenging capacity at 1 mM incubated for 30 mins under dark condition by absorbance based assay; format: functional
Mus musculus [3] = species: Mus musculus; assay: Antioxidant activity in mouse brain homogenate assessed as inhibition of FeSO4/ascorbic acid induced lipid autoxidation by measuring reduction in TBARS formation at 0.1 mM preincubated with compound for 30 mins followed by FeSO4/ascorbic acid addition and measured after 1 hrs by TBARS assay; format: functional; settings: time 1.5 hrs
Mus musculus [4] = species: Mus musculus; assay: Antioxidant activity in mouse brain homogenate assessed as inhibition of FeSO4/ascorbic acid induced lipid autoxidation by measuring reduction in TBARS formation at 1 mM preincubated with compound for 30 mins followed by FeSO4/ascorbic acid addition and measured after 1 hrs by TBARS assay; format: functional; settings: time 1.5 hrs
Erythrocyte [5] = assay: Antioxidant activity in mouse RBC assessed as inhibition of H2O2-induced hemolytic activity at 0.01 mM preincubated with compound for 30 mins followed by H2O2 addition and measured for 5 hrs; format: functional, cell-based; settings: time 5.5 hrs
Erythrocyte [6] = assay: Antioxidant activity in mouse RBC assessed as inhibition of H2O2-induced hemolytic activity at 0.1 mM preincubated with compound for 30 mins followed by H2O2 addition and measured after 5 hrs; format: functional, cell-based; settings: time 5.5 hrs
Erythrocyte [7] = assay: Antioxidant activity in H2O2-induced mouse RBC cells assessed as inhibition of methemoglobin formation at 0.01 mM preincubated with compound for 30 mins followed by H2O2 addition and measured after 5 hrs; format: functional, cell-based; settings: time 5.5 hrs
Erythrocyte [8] = assay: Antioxidant activity in H2O2-induced mouse RBC cells assessed as inhibition of ferryl-hemoglobin formation at 0.01 mM preincubated with compound for 30 mins followed by H2O2 addition and measured after 5 hrs; format: functional, cell-based; settings: time 5.5 hrs
Mus musculus [9] = species: Mus musculus; assay: Antioxidant activity in mouse brain homogenate assessed as inhibition of FeSO4/ascorbic acid induced lipid autoxidation by measuring reduction in TBARS formation at 0.5 mM preincubated with isopropanol for 30 mins followed by compound addition for 30 mins and measured 1 hrs after FeSO4/ascorbic acid addition by TBARS assay; format: functional; settings: time 1.5 hrs
Erythrocyte [10] = assay: Antioxidant activity in H2O2-induced mouse RBC assessed as inhibition of lipid peroxidation by measuring MDA formation at 0.01 mM preincubated with compound for 30 mins followed by H2O2 addition and measured after 4 hrs by spectrophotometric analysis; format: functional, cell-based; settings: time 4.5 hrs
[11] = Hemolytic activity in mouse RBC assessed as hemolysis at 0.1 mM measured after 5 hrs; format: toxicity, cell-based, Erythrocyte; settings: mouse red blood cells, read-out: Activity
Erythrocyte [12] = assay: Antioxidant activity in mouse RBC assessed as inhibition of H2O2-induced hemolytic activity at 0.01 mM preincubated with compound for 30 mins followed by H2O2 addition and measured at 1 to 3 hrs; format: functional, cell-based; settings: time 1.5-3.5 hrs
Erythrocyte [13] = assay: Antioxidant activity in H2O2-induced mouse RBC cells assessed as reduction in metHB/oxyHB ratio at 0.01 mM preincubated with compound for 30 mins followed by H2O2 addition and measured after 5 hrs; format: functional, cell-based; settings: time 5.5 hrs

Compound: C=CCc1ccccc1
- Activity [1]: 1.01%
- Activity [2]: 4.29%
- Activity (Mus musculus [3]): inactive
- Activity (Mus musculus [4]): Active
- Activity (Erythrocyte [5]): Active
- Activity (Erythrocyte [6]): inactive
- Activity (Erythrocyte [7]): Active
- Activity (Erythrocyte [8]): Active

Compound: C=CCc1c(OC)c(OC)c2c(c1OC)OCO2
- Activity [1]: 0.91%
- Activity [2]: 4.3%
- Activity (Mus musculus [3]): Active
- Activity (Mus musculus [4]): Active
- Activity (Mus musculus [9]): inactive
- Activity (Erythrocyte [5]): inactive
- Activity (Erythrocyte [10]): inactive

Compound: C=CCc1cc(OC)c2c(c1OC)OCO2 [APIOL]
- Activity [1]: 0.05%
- Activity [2]: 0.3%
- Activity (Mus musculus [3]): Active
- Activity (Mus musculus [4]): Active
- Activity (Mus musculus [9]): inactive
- hemolysis at 5 h, 100 µM [11]: ≤ 10%
- Activity (Erythrocyte [5]): Active
- Activity (Erythrocyte [6]): inactive
- Activity (Erythrocyte [7]): Active
- Activity (Erythrocyte [8]): Active

Compound: Cc1c(C)c2c(c(C)c1O)CCC(C)(C(=O)O)O2 (stereo unspecified)
- Activity [1]: 94.9%
- Activity (Mus musculus [3]): Active

Compound: C=CCc1c(O)c(OC)c2c(c1OC)OCO2
- Activity [1]: 88.9%
- Activity [2]: 90.2%
- Activity (Mus musculus [3]): Active
- Activity (Mus musculus [4]): Active
- Activity (Mus musculus [9]): inactive
- Activity (Erythrocyte [5]): Active
- Activity (Erythrocyte [10]): Active
- Activity (Erythrocyte [12]): Active

Compound: Cc1cc(C(C)(C)C)c(O)c(C(C)(C)C)c1
- Activity [1]: 72%
- Activity (Mus musculus [3]): Active
- Activity (Erythrocyte [10]): Active
- Activity (Erythrocyte [7]): Active
- Activity (Erythrocyte [8]): Active
- Activity (Erythrocyte [13]): Active

Compound: C=CCc1cc(OC)c2c(c1)OCO2 [ELEMICIN]
- Activity [1]: 1.31%
- Activity [2]: 5.25%
- Activity (Mus musculus [3]): Active
- Activity (Mus musculus [4]): Active
- Activity (Mus musculus [9]): inactive
- Activity (Erythrocyte [5]): Active
- Activity (Erythrocyte [6]): Active
- Activity (Erythrocyte [7]): Active
- Activity (Erythrocyte [8]): Active

Compound: C=CCc1cc2c(c(OC)c1OC)OCO2 [DILLAPIOLE]
- Activity [1]: 0.38%
- Activity [2]: 3.94%
- Activity (Mus musculus [3]): Active
- Activity (Mus musculus [4]): Active
- Activity (Mus musculus [9]): inactive
- hemolysis at 5 h, 100 µM [11]: ≤ 10%
- Activity (Erythrocyte [5]): Active
- Activity (Erythrocyte [6]): Active
- Activity (Erythrocyte [7]): Active
- Activity (Erythrocyte [8]): Active
- Activity (Erythrocyte [13]): Active

Compound: C=CCc1cc(OC)c(OC)c(OC)c1OC
- Activity [1]: 0.1%
- Activity [2]: 1.47%
- Activity (Mus musculus [3]): inactive
- Activity (Mus musculus [4]): Active
- Activity (Erythrocyte [5]): Active
- Activity (Erythrocyte [6]): inactive
- Activity (Erythrocyte [7]): Active
- Activity (Erythrocyte [8]): Active

Compound: C=CCc1ccc(OC)cc1
- Activity [1]: 0.25%
- Activity [2]: 1.16%
- Activity (Mus musculus [3]): inactive
- Activity (Mus musculus [4]): Active
- Activity (Erythrocyte [5]): Active
- Activity (Erythrocyte [6]): inactive
- Activity (Erythrocyte [7]): Active
- Activity (Erythrocyte [8]): Active

Compound: C=CCc1ccc2c(c1)OCO2 [SAFROLE]
- Activity [1]: 1.26%
- Activity [2]: 10.6%
- Activity (Mus musculus [3]): inactive
- Activity (Mus musculus [4]): Active
- hemolysis at 5 h, 100 µM [11]: ≤ 10%
- Activity (Erythrocyte [5]): Active
- Activity (Erythrocyte [6]): inactive
- Activity (Erythrocyte [7]): Active
- Activity (Erythrocyte [8]): Active
